Assay results as given in PubChem BioAssay AID330 (DTP/NCI, 2004).
Values joined by “and” are separate entries in the source; they are usually repeats but may differ in a detail not shown here. Identical values can stand only once. Toxic doses and inconclusive results are not listed.

Test system: P388 leukemia ip, CD2F1 mice, survival T/C
Experiment: NCI In Vivo Anticancer Drug Screen. Data for tumor model P388 Leukemia (intraperitoneal) in CD2F1 (CDF1) mice
Details: endpoint: median survival time, higher = longer survival
Outline: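 Mice carrying the transplanted tumor received test compound or vehicle. Survival was recorded in each group, and the value is the treated-group measurement divided by that of the vehicle-treated control group.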

[1] = dose: 50.0 mg/kg/injection, schedule: Q01DX005 (ip), vehicle: saline with Tween-80
[2] = dose: 100.0 mg/kg/injection, schedule: Q01DX005 (ip), vehicle: saline with Tween-80
[3] = dose: 200.0 mg/kg/injection, schedule: Q01DX005 (ip), vehicle: saline with Tween-80
[4] = dose: 60.0 mg/kg/injection, schedule: Q01DX005 (ip), vehicle: saline with Tween-80
[5] = dose: 120.0 mg/kg/injection, schedule: Q01DX005 (ip), vehicle: saline with Tween-80
[6] = dose: 240.0 mg/kg/injection, schedule: Q01DX005 (ip), vehicle: saline with Tween-80

For `CO[C@H](/C(C)=C/C=C/C(C)=C/c1coc(C)n1)[C@H](C)[C@H]1C[C@@H](O)[C@@]2(C)O[C@H]2/C=C/[C@@H](C)[C@@H]2C[C@@H](CC(=O)O2)C[C@H]2O[C@@H]2C(=O)O1`, the T/C (dose: 0.1 mg/kg/injection, schedule: Q01DX005 (ip), vehicle: Klucel (hydroxypropylcellulose) (HPC)) was 150 % of control, the T/C (dose: 0.12 mg/kg/injection, schedule: Q01DX005 (ip), vehicle: Klucel (hydroxypropylcellulose) (HPC)) was 150 % of control and the T/C (dose: 0.14 mg/kg/injection, schedule: Q01DX005 (ip), vehicle: Klucel (hydroxypropylcellulose) (HPC)) was 152 % of control and 160 % of control. The T/C (dose: 0.18 mg/kg/injection, schedule: Q01DX005 (ip), vehicle: Klucel (hydroxypropylcellulose) (HPC)) was 160 % of control, the T/C (dose: 0.24 mg/kg/injection, schedule: Q01DX005 (ip), vehicle: Klucel (hydroxypropylcellulose) (HPC)) was 166 % of control and the T/C (dose: 0.45 mg/kg/injection, schedule: Q01DX005 (ip), vehicle: Klucel (hydroxypropylcellulose) (HPC)) was 171 % of control and 184 % of control and 195 % of control. For the same compound, the T/C (dose: 0.67 mg/kg/injection, schedule: Q01DX005 (ip), vehicle: Klucel (hydroxypropylcellulose) (HPC)) was 181 % of control and 191 % of control, the T/C (dose: 10.0 micrograms/kg/injection, schedule: Q01DX005 (ip), vehicle: Klucel (hydroxypropylcellulose) (HPC)) was 104 % of control and the T/C (dose: 20.0 micrograms/kg/injection, schedule: Q01DX005 (ip), vehicle: Klucel (hydroxypropylcellulose) (HPC)) was 109 % of control and 123 % of control. For the same compound, the T/C (dose: 80.0 micrograms/kg/injection, schedule: Q01DX005 (ip), vehicle: Klucel (hydroxypropylcellulose) (HPC)) was 163 % of control.
In the case of `CN(C)C1C(=O)C(C(=O)NCNC2C(=O)N3C2SC(C)(C)C3C(=O)O)=C(O)C2(O)C(=O)C3=C(O)c4c(O)cccc4C(C)(O)C3CC12` (centres undefined), the T/C [1] is reported as 100 % of control, the T/C [2] is reported as 104 % of control and the T/C [3] is reported as 90 % of control.
For `Cc1ccnc(N)c1N`, the T/C (dose: 3.13 mg/kg/injection, schedule: Q01DX009 (ip), vehicle: other) was 89 % of control, the T/C (dose: 6.25 mg/kg/injection, schedule: Q01DX009 (ip), vehicle: other) was 96 % of control and the T/C (dose: 12.5 mg/kg/injection, schedule: Q01DX009 (ip), vehicle: other) was 109 % of control.
In the case of `CN(c1ccccc1)c1ccc([N+](=O)[O-])c2no[n+]([O-])c12`, the T/C (dose: 7.5 mg/kg/injection, schedule: Q01DX009 (ip), vehicle: suspension in saline) is reported as 92 % of control and 97 % of control, the T/C (dose: 15.0 mg/kg/injection, schedule: Q01DX009 (ip), vehicle: suspension in saline) is reported as 92 % of control and 96 % of control and the T/C (dose: 30.0 mg/kg/injection, schedule: Q01DX009 (ip), vehicle: suspension in saline) is reported as 103 % of control and 90 % of control. The T/C (dose: 60.0 mg/kg/injection, schedule: Q01DX009 (ip), vehicle: suspension in saline) was 110 % of control and 115 % of control.
In the case of `CCOC(=O)C(C#N)C(=N)C1CC(C)OC1=O` (centres undefined), the T/C [4] is reported as 100 % of control, the T/C [5] is reported as 100 % of control and the T/C [6] is reported as 98 % of control.
In the case of `CCOC(CNCc1cc(C)c2[nH]c3ccccc3c2c1C)OCC`, the T/C [1] is reported as 100 % of control, the T/C [2] is reported as 102 % of control and the T/C [3] is reported as 110 % of control.
`CN(C)CCNc1ccc2cc3ccc(N=Nc4ccc(N(C)C)cc4)cc3nc2c1` was tested, and the T/C (dose: 100.0 mg/kg/injection, schedule: Q04DX003 (ip), vehicle: saline with Tween-80) was 100 % of control, the T/C (dose: 200.0 mg/kg/injection, schedule: Q04DX003 (ip), vehicle: saline with Tween-80) was 101 % of control and the T/C (dose: 400.0 mg/kg/injection, schedule: Q04DX003 (ip), vehicle: saline with Tween-80) was 103 % of control.
For `O=NNc1cccnc1`, the T/C (dose: 3.12 mg/kg/injection, schedule: Q01DX009 (ip), vehicle: water) was 108 % of control, the T/C (dose: 6.25 mg/kg/injection, schedule: Q01DX009 (ip), vehicle: water) was 101 % of control and 105 % of control and the T/C (dose: 12.5 mg/kg/injection, schedule: Q01DX009 (ip), vehicle: water) was 107 % of control and 110 % of control.
For `CCOC(=O)c1c(C2OC(CO)C(O)C2O)cn(C)c1-c1ccccc1` (centres undefined), the T/C (dose: 50.0 mg/kg/injection, schedule: Q01DX001 (ip), vehicle: Klucel (hydroxypropylcellulose) (HPC)) was 103 % of control, the T/C (dose: 100.0 mg/kg/injection, schedule: Q01DX001 (ip), vehicle: Klucel (hydroxypropylcellulose) (HPC)) was 98 % of control and the T/C (dose: 200.0 mg/kg/injection, schedule: Q01DX001 (ip), vehicle: Klucel (hydroxypropylcellulose) (HPC)) was 98 % of control.
In the case of `O=[N+]([O-])c1ccc2nccc(Cl)c2c1`, the T/C (dose: 12.5 mg/kg/injection, schedule: Q01DX009 (ip), vehicle: Klucel (hydroxypropylcellulose) (HPC)) is reported as 95 % of control and the T/C (dose: 25.0 mg/kg/injection, schedule: Q01DX009 (ip), vehicle: Klucel (hydroxypropylcellulose) (HPC)) is reported as 100 % of control.
`COc1ccccc1C(c1cc2c(cc1O)OCO2)N1CCOCC1` (centres undefined) was tested, and the T/C [4] was 117 % of control, the T/C [5] was 115 % of control and the T/C [6] was 122 % of control.
`CSc1nc(-c2cccs2)cc(C(F)(F)F)n1` was tested, and the T/C (dose: 50.0 mg/kg/injection, schedule: Q04DX003 (ip), vehicle: gum acacia) was 105 % of control, the T/C (dose: 100.0 mg/kg/injection, schedule: Q04DX003 (ip), vehicle: gum acacia) was 104 % of control and the T/C (dose: 200.0 mg/kg/injection, schedule: Q04DX003 (ip), vehicle: gum acacia) was 109 % of control. The T/C (dose: 400.0 mg/kg/injection, schedule: Q04DX003 (ip), vehicle: gum acacia) was 96 % of control.
With `O=[N+]([O-])c1cc2c([N+](=O)[O-])cccc2o1` the T/C (dose: 100.0 mg/kg/injection, schedule: Q04DX003 (ip), vehicle: Klucel (hydroxypropylcellulose) (HPC)) was 102 % of control and the T/C (dose: 200.0 mg/kg/injection, schedule: Q04DX003 (ip), vehicle: Klucel (hydroxypropylcellulose) (HPC)) was 103 % of control.
In the case of `CC(=O)[O][Hg][c]1s[c]([Hg][O]C(C)=O)[c]([Hg][O]C(C)=O)[c]1[Hg][O]C(C)=O`, the T/C (dose: 3.0 mg/kg/injection, schedule: Q01DX009 (ip), vehicle: saline with Tween-80) is reported as 120 % of control, the T/C (dose: 4.0 mg/kg/injection, schedule: Q01DX009 (ip), vehicle: saline with Tween-80) is reported as 109 % of control and the T/C (dose: 6.0 mg/kg/injection, schedule: Q01DX009 (ip), vehicle: saline with Tween-80) is reported as 104 % of control. The T/C (dose: 9.0 mg/kg/injection, schedule: Q01DX009 (ip), vehicle: saline with Tween-80) was 90 % of control.
For `Cc1ccc(NCCNCCO)c2c(=O)c3ccccc3sc12`, the T/C (dose: 3.75 mg/kg/injection, schedule: Q01DX009 (ip), vehicle: water) was 100 % of control, the T/C (dose: 7.5 mg/kg/injection, schedule: Q01DX009 (ip), vehicle: distilled water + Tween-80) was 113 % of control and the T/C (dose: 7.5 mg/kg/injection, schedule: Q01DX009 (ip), vehicle: water) was 99 % of control. The T/C (dose: 12.5 mg/kg/injection, schedule: Q01DX005 (ip), vehicle: other) was 113 % of control, the T/C (dose: 15.0 mg/kg/injection, schedule: Q01DX009 (ip), vehicle: distilled water + Tween-80) was 120 % of control and the T/C (dose: 15.0 mg/kg/injection, schedule: Q01DX009 (ip), vehicle: water) was 123 % of control. The T/C (dose: 25.0 mg/kg/injection, schedule: Q01DX005 (ip), vehicle: other) was 120 % of control, the T/C (dose: 50.0 mg/kg/injection, schedule: Q01DX005 (ip), vehicle: Klucel (hydroxypropylcellulose) (HPC)) was 119 % of control and the T/C (dose: 100.0 mg/kg/injection, schedule: Q01DX005 (ip), vehicle: Klucel (hydroxypropylcellulose) (HPC)) was 158 % of control. The T/C (dose: 200.0 mg/kg/injection, schedule: Q01DX005 (ip), vehicle: Klucel (hydroxypropylcellulose) (HPC)) was 155 % of control.
For `COc1ccc(Br)c(C(=O)O)c1OS(=O)(=O)c1ccc(C)cc1`, the T/C (dose: 25.0 mg/kg/injection, schedule: Q01DX009 (ip), vehicle: other) was 106 % of control, the T/C (dose: 50.0 mg/kg/injection, schedule: Q01DX009 (ip), vehicle: other) was 105 % of control and the T/C (dose: 100.0 mg/kg/injection, schedule: Q01DX009 (ip), vehicle: other) was 100 % of control. For the same compound, the T/C (dose: 200.0 mg/kg/injection, schedule: Q01DX009 (ip), vehicle: other) was 105 % of control and the T/C (dose: 400.0 mg/kg/injection, schedule: Q01DX009 (ip), vehicle: other) was 108 % of control.
With `COC1=C/C(=C\C=C\c2ccccc2)C(OC)=CC1=O` the T/C (dose: 2.5 mg/kg/injection, schedule: Q01DX009 (ip), vehicle: saline with Tween-80) was 102 % of control, the T/C (dose: 5.0 mg/kg/injection, schedule: Q01DX009 (ip), vehicle: saline with Tween-80) was 104 % of control and the T/C (dose: 10.0 mg/kg/injection, schedule: Q01DX009 (ip), vehicle: saline with Tween-80) was 108 % of control.
In the case of `CSc1nc(C#N)c(N)s1`, the T/C [4] is reported as 101 % of control, the T/C [5] is reported as 95 % of control and the T/C [6] is reported as 95 % of control.
`CCc1cccc(C)c1NC(=O)C(=O)C(C#N)c1ccc(C)cc1` (centres undefined) was tested, and the T/C [1] was 99 % of control, the T/C [2] was 93 % of control and the T/C [3] was 103 % of control.
In the case of `NC(=O)c1[nH]cnc1NN=NCCF`, the T/C (dose: 0.39 mg/kg/injection, schedule: Q01DX009 (ip), vehicle: distilled water + Tween-80) is reported as 116 % of control and 122 % of control, the T/C (dose: 0.78 mg/kg/injection, schedule: Q01DX009 (ip), vehicle: distilled water + Tween-80) is reported as 116 % of control and the T/C (dose: 1.56 mg/kg/injection, schedule: Q01DX009 (ip), vehicle: distilled water + Tween-80) is reported as 150 % of control. The T/C (dose: 3.13 mg/kg/injection, schedule: Q01DX009 (ip), vehicle: distilled water + Tween-80) was 179 % of control and the T/C (dose: 6.25 mg/kg/injection, schedule: Q01DX009 (ip), vehicle: distilled water + Tween-80) was 175 % of control.
